Source: US20230145835A1, “Modulators of Alpha-4-beta-7 Integrin and MAdCAM” (48HD Biopharma Inc., priority 2021, published 2023)
Numbered stars: 1 amine (or outer) side, 2 acyl side, 3 side chain; on linkers, the order of the positions; unused ones are H or OH. Bridge positions count the residues as written; N and C are the ends. Peptide text beside a SMILES is read from it. X3 = O=C(/C=N/OCCCCCCOc1cc(C[*:2])cc(C[*:3])c1)[*:1]; X1 = O=C(C=NOCCCCCCOc1cc(C[*:2])cc(C[*:3])c1)[*:1]; X2 = O=C(C=NOCc1cc(C[*:2])cc(C[*:3])c1)[*:1]

Molecular target: T1, rh-integrin α4β7/LPAM-1 (Homo sapiens, UniProt P13612+P26010)
T1 sequence (P13612 34-977 limits assumed): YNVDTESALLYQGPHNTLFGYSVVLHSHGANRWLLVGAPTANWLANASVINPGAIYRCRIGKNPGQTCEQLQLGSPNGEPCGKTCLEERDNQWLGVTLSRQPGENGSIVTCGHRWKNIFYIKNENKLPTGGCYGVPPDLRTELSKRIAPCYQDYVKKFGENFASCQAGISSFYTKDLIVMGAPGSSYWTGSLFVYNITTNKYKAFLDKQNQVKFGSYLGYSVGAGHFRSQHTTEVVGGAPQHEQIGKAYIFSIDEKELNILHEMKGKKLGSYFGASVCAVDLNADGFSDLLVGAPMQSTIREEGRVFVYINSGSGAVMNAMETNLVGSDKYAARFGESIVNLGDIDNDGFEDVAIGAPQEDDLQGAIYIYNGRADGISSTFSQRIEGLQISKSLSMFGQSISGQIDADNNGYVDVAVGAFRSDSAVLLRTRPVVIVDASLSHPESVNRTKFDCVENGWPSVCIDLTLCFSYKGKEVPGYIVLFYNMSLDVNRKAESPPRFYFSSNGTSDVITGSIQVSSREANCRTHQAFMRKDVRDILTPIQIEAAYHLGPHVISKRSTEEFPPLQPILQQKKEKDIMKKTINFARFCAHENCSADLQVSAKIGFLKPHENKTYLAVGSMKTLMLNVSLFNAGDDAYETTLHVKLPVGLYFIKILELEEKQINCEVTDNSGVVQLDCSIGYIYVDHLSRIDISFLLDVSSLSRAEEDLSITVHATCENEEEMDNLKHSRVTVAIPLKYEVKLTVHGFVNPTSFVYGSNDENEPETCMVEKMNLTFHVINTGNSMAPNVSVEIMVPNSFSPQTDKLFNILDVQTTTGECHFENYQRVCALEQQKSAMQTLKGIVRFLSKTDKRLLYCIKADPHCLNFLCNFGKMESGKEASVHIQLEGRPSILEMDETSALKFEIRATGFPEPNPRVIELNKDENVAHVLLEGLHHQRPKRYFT
T1 sequence (P26010 20-723 limits assumed): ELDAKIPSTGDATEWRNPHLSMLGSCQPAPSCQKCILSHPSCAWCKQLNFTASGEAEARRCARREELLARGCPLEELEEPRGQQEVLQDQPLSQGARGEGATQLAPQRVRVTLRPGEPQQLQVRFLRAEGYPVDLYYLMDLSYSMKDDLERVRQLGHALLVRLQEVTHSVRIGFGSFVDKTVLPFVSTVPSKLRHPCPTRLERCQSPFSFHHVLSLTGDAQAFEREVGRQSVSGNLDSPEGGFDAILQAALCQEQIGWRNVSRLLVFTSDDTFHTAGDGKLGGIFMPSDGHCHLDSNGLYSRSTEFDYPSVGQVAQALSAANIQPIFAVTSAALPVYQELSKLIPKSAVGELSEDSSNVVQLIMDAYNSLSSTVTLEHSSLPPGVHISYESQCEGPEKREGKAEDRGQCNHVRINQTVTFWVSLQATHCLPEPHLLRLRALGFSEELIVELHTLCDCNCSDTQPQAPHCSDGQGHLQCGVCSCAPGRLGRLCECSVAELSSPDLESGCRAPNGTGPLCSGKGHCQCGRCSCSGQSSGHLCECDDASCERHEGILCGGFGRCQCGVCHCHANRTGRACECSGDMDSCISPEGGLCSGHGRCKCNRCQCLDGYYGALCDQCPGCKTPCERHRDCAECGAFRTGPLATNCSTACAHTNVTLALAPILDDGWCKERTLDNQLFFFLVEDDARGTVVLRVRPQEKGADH
Experiment: α4β7-MadCAM Competition ELISA (Example 4)
Type: binding
Conditions: IC50, competition ELISA, 4 μg/mL α4β7 coated, MAdCAM and peptide mixture, 28° C.
Method: After washing with wash buffer, 200 μL assay buffer was added to each well and incubated for one hour at 28° C. After another wash with wash buffer, 100 μL of a MAdCAM and peptide mixture in assay buffer was added to each well and incubated for one hour at 28° C., followed by washing with wash buffer.

Row | Structure (SMILES) | IC50 [µM]
1 | CC(C)C[C@@H]1NC(=O)[C@H]([C@@H](C)O)NC(=O)[C@H](CC(=O)O)NC(=O)[C@H](CO)NC(=O)[C@H](CCCNC(=N)N)NC(=O)[C@@H]2CSCc3cc(cc(c3)CSC[C@@H](C(=O)O)NC1=O)CON=CC(=O)N[C@@H](C)C(=O)N2 [SEQ ID NO: 70] (ACRSDTLC-OH; linker N-2-8 via X2) | 111

Tested on: not listed separately
Experiment: Simulated Intestinal Fluid Assay
Conditions: FaSSIF, LCMS/MS
Method: Studies were carried out in simulated intestinal fluid (SIF) to evaluate the intestinal stability of the peptide molecules of the peptides of the instant disclosure. A Fasted State Simulated Intestinal Fluid (FaSSIF) reagent was prepared according to methods known in the art (including addition of the enzyme pancreatin), to which stock peptide solutions were added, incubated, quenched, and analyzed using LCMS/MS.
Percent remaining at each time point was calculated based on the peak area response ratio of test to compound to internal standard. Half-lives were calculated by fitting to a first-order exponential decay equation using GraphPad.

Row | Structure (SMILES) | Comments
2 | C[C@@H](O)[C@H](NC(=O)[C@H](CC(=O)O)NC(=O)[C@@H]1CCCN1C(=O)[C@H](Cc1ccc(O)cc1)NC(=O)[C@H](CS)NC(=O)[C@H](CC(=O)O)NC(=O)[C@@H](N)CO)C(=O)N[C@@H](Cc1ccc(O)cc1)C(=O)N[C@@H](Cc1c[nH]cn1)C(=O)N[C@@H](CS)C(=O)O [SEQ ID NO. 13] (H-SDCYPDTYHC-OH) | No peak

Same assay, conditions: simulated gi fluid

Row | Structure (SMILES) | half-life [h]
3 | C[C@@H](O)[C@@H]1NC(=O)[C@H](CC(=O)O)NC(=O)[C@@H]2CCCN2C(=O)[C@H](Cc2ccc(O)cc2)NC(=O)[C@@H]2CSCc3cc(cc(c3)OCCCCCCON=CC(=O)N[C@@H](CC(=O)O)C(=O)N2)CSC[C@@H](C(=O)O)NC(=O)[C@H](Cc2c[nH]cn2)NC(=O)[C@H](Cc2ccc(O)cc2)NC1=O [SEQ ID NO. 16] (DCYPDTYHC-OH; linker N-2-9 via X1) | 3.45
4 | CC(C)C[C@@H]1NC(=O)[C@@H]2CCCN2C(=O)[C@H](Cc2c[nH]c3ccccc23)NC(=O)[C@@H]2CCCN2C(=O)[C@@H]2CSCc3cc(cc(c3)OCCCCCCON=CC(=O)N[C@@H](CCC(=O)O)C(=O)N2)CSC[C@@H](C(=O)O)NC(=O)[C@H](CCC(N)=O)NC(=O)[C@@H]2CCCN2C1=O [SEQ ID NO. 15] (ECPWPLPQC-OH; linker N-2-9 via X1) | 1.07
5 | C[C@@H](O)[C@@H]1NC(=O)[C@H](CC(=O)O)NC(=O)[C@@H]2CCCN2C(=O)[C@H](Cc2ccc(O)cc2)NC(=O)[C@@H](NC(=O)[C@H](CC(=O)O)NC(=O)[C@@H](N)CO)CSSC[C@@H](C(N)=O)NC(=O)[C@H](Cc2c[nH]cn2)NC(=O)[C@H](Cc2ccc(O)cc2)NC1=O [SEQ ID NO. 14] (H-SDCYPDTYHC-NH2; disulfide 3-10) | 1.32
6 | O=C(O)CCCc1ccc(N(CCCl)CCCl)cc1 [Chlorambucil, chlorambucil, reference compound] | 0.627
7 | CSCC[C@@H]1NC(=O)[C@H](CCCNC(=N)N)NC(=O)CNC(=O)[C@H](Cc2ccc(O)cc2)NC(=O)[C@H](Cc2c[nH]c3ccccc23)NC(=O)[C@H](CCC(N)=O)NC(=O)[C@@H]2CSCc3cc(cc(c3)OCCCCCCON=CC(=O)N[C@@H](C)C(=O)N2)CSC[C@@H](C(=O)O)NC1=O [SEQ ID NO. 21] (ACQWYGRMC-OH; linker N-2-9 via X1) | 0.328
8 | CC(C)C[C@@H]1NC(=O)[C@@H]2CSCc3cc(cc(c3)OCCCCCCO/N=C/C(=O)N[C@@H](Cc3ccccc3)C(=O)N2)CSC[C@@H](C(N)=O)NC(=O)[C@H](CO)NC(=O)[C@H](C)NC(=O)[C@H](CCC(=O)O)NC(=O)[C@H](Cc2ccc(O)cc2)NC(=O)CNC1=O [SEQ ID NO: 22] (FCLGYEASC-NH2; linker N-2-9 via X3) | 1.2
9 | CSCC[C@@H]1NC(=O)C=NOCCCCCCOc2cc3cc(c2)CSC[C@H](NC1=O)C(=O)N1CCC[C@H]1C(=O)N[C@@H](CC(C)C)C(=O)N[C@@H](Cc1ccc(O)cc1)C(=O)N[C@@H](CCCCN)C(=O)N[C@@H](C(C)C)C(=O)N[C@@H](Cc1c[nH]cn1)C(=O)N[C@H](C(=O)O)CSC3 [SEQ ID NO. 8] (MCPLYKVHC-OH; linker N-2-9 via X1) | 0.137
10 | CSCC[C@H](NC(=O)[C@@H](N)CO)C(=O)N[C@H]1CSSC[C@@H](C(=O)O)NC(=O)[C@H](Cc2c[nH]cn2)NC(=O)[C@H](C(C)C)NC(=O)[C@H](CCCCN)NC(=O)[C@H](Cc2ccc(O)cc2)NC(=O)[C@H](CC(C)C)NC(=O)[C@@H]2CCCN2C1=O [SEQ ID NO. 5] (H-SMCPLYKVHC-OH; disulfide 3-10) | 0.393
11 | CC(C)C[C@@H]1NC(=O)[C@@H]2CSCc3cc(cc(c3)OCCCCCCON=CC(=O)N[C@@H](CCCCN)C(=O)N2)CSC[C@@H](C(=O)O)NC(=O)[C@H]([C@@H](C)O)NC(=O)[C@H](CCC(N)=O)NC(=O)[C@H](CCC(=O)O)NC(=O)[C@H](Cc2c[nH]c3ccccc23)NC(=O)CNC1=O [SEQ ID NO. 20] (KCLGWEQTC-OH; linker N-2-9 via X1) | 1.36
12 | N=C(N)NCCC[C@@H]1NC(=O)CNC(=O)[C@H](Cc2ccc(O)cc2)NC(=O)[C@H](Cc2c[nH]c3ccccc23)NC(=O)[C@H](Cc2c[nH]cn2)NC(=O)[C@@H]2CSCc3cc(cc(c3)OCCCCCCON=CC(=O)N[C@@H](CCC(N)=O)C(=O)N2)CSC[C@@H](C(=O)O)NC(=O)[C@H](CO)NC1=O [SEQ ID NO. 19] (QCHWYGRSC-OH; linker N-2-9 via X1) | > 8

Molecular target: T1, rh-integrin α4β7/LPAM-1
Experiment: Competition Binding Assay (competition ELISA, Example 1)
Conditions: not given

Row | Structure (SMILES) | IC50 [µM]
13 | CC(C)C[C@@H]1NC(=O)[C@H]([C@@H](C)O)NC(=O)[C@H](CC(=O)O)NC(=O)[C@H](CO)NC(=O)[C@H](CCCNC(=N)N)NC(=O)[C@@H]2CSCc3cc(cc(c3)CSC[C@@H](C(=O)O)NC1=O)CON=CC(=O)N[C@@H](C)C(=O)N2 [SEQ ID NO: 70] (ACRSDTLC-OH; linker N-2-8 via X2) | 111
14 | CC(C)C[C@@H]1NC(=O)[C@H]([C@@H](C)O)NC(=O)[C@H](CC(=O)O)NC(=O)[C@H](CO)NC(=O)[C@H](CCCNC(=N)N)NC(=O)[C@@H]2CSCc3cc(cc(c3)OCCCCCCO/N=C/C(=O)N[C@@H](C)C(=O)N2)CSC[C@@H](C(N)=O)NC1=O [SEQ ID NO: 25] (ACRSDTLC-NH2; linker N-2-8 via X3; C-terminus assumed) | 79.8
15 | CC[C@H](C)[C@@H]1NC(=O)[C@H](CC(=O)O)NC(=O)[C@H](CCSC)NC(=O)[C@@H]2CCCN2C(=O)[C@@H]2CSCc3cc(cc(c3)OCCCCCCO/N=C/C(=O)N[C@@H](CCC(N)=O)C(=O)N2)CSC[C@@H](C(N)=O)NC(=O)[C@H]([C@@H](C)O)NC(=O)[C@@H]2CCCN2C1=O [SEQ ID NO: 23] (QCPMDIPTC-NH2; linker N-2-9 via X3; C-terminus assumed) | 1.32
